According to publication PMC6934184, “Selective DNA-PKcs inhibition extends the therapeutic index of localized radiotherapy and chemotherapy” (The Journal of Clinical Investigation, 2019):

Target: T1, CHEK2 (CHK2) (Homo sapiens, UniProt O96017)
T1 construct: purchased Thermo Fisher Scientific (Life Technologies) SelectScreen
Assay: SelectScreen Z'LYTE
Type: biochemical
Outline: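 NU5455 was profiled across the SelectScreen Broad panel of kinase activity and binding assays. Z'LYTE reactions such as CSF1R ran at apparent Km ATP, while the Adapta CAMK1 assay used ATP listed as 10. Values are given as percent.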

T1 sequence (O96017 whole entry): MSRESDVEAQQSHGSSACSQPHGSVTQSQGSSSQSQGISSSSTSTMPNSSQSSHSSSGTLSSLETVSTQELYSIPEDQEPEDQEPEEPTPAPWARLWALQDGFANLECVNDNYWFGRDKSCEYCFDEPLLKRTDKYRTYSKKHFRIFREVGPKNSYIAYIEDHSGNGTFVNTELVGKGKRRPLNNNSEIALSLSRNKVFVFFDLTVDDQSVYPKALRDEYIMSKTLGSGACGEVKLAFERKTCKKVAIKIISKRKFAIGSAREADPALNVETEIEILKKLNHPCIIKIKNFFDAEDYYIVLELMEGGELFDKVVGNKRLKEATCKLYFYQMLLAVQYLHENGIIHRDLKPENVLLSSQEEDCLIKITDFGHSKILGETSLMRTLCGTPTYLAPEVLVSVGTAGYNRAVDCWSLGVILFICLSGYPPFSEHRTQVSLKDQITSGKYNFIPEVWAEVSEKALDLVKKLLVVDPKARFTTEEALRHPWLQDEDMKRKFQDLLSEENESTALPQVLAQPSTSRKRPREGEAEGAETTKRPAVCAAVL

SMILES: CN(C(=O)CN1CCOCC1)c1ccc2sc3c(-c4cccc5c(=O)cc(N6CC7CCC(C6)O7)oc45)cccc3c2c1 [NU5455]
- inhibition at 1 µM: -11.7%
